2 compounds from ChEMBL document CHEMBL4354835, “Selective Blockade of Neuronal BK (α + β4) Channels Preventing Epileptic Seizure” (J Med Chem, 2020) can be followed below.

Calls of active or inactive are those of the source. No cut-off for these calls is given here.

The species entered for assay [1] is Rattus norvegicus. As to the kind of experiment: Anticonvulsant activity against PTZ-induced epileptic seizure Sprague-Dawley rat model assessed as mortality rate compound infused into hippocampal region and 10 mins later injected with PTZ and measured for 2 hrs post PTZ-stimulation (reference value: 33.33%). In kind it is functional.
The species named for assay [2] is Rattus norvegicus. Put plainly: Anticonvulsant activity against PTZ-induced epileptic seizure Sprague-Dawley rat model assessed as latency time of seizures compound infused into hippocampal region and 10 mins later injected with PTZ and measured for 2 hrs post PTZ-stimulation (reference value: 108.5 +/- 8.63 sec). In kind it is functional.
The species entered for assay [3] is Rattus norvegicus. Put plainly: Anticonvulsant activity against PTZ-induced epileptic seizure Sprague-Dawley rat model assessed as duration of seizure compound infused into hippocampal region and 10 mins later injected with PTZ and measured for 2 hrs post PTZ-stimulation (reference value: 376 +/- 76.43 sec). Type of assay: functional.
In assay [4] the target is KCNMA1/KCNMB4 (Homo sapiens, UniProt Q12791+Q86W47). As to the kind of experiment: Inhibition of human BK alpha/beta4 channel expressed in HEK293T cells assessed as K+ outward current fraction at 10 uM at -80 mV holding potential by whole cell patch clamp method relative to control. In kind it is cell-based. On the technique in general: The patch-clamp technique gives a direct electrical read-out from membranes.

Assay [5] concerns the target T1, Calcium-activated potassium channel subunit beta-4 (Homo sapiens, UniProt Q86W47).
T1 sequence (Q86W47 whole entry): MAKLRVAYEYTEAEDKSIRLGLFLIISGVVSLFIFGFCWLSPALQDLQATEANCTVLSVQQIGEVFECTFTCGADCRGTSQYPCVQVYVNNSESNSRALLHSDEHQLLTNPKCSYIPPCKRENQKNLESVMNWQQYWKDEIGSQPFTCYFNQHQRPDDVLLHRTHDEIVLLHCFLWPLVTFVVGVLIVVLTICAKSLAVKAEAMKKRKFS
Put plainly: Binding affinity to NT-495 fluorophore reagent labelled human BK beta4 (45 to 166 residues) incubated for 30 mins by microscale thermophoresis assay.

Assay [6] deals with T2, KCNMA1/KCNMB4 (Rattus norvegicus) (UniProt Q62976+Q9ESK8). Put plainly: Inhibition of BK alpha/beta-4 in PTZ-stimulated rat hippocampal pyramidal neurons assessed as larger action potential width at 300 pA current injection at -80mV holding potential measured after 10 mins by whole cell current clamp assay. Type of assay: protein-complex assay.
Assay [7] has as its target T2, KCNMA1/KCNMB4 (Rattus norvegicus). Put plainly: Inhibition of BK alpha/beta-4 in PTZ-stimulated rat hippocampal pyramidal neurons assessed as slower decay of after hyperpolarization at 300 pA at -80mV holding potential measured after 10 mins by whole cell current clamp assay. In kind it is protein-complex assay.
The target is the same in assay [8]. Put plainly: Inhibition of BK alpha/beta-4 in PTZ-stimulated rat hippocampal pyramidal neurons assessed as increase in AHP size at 300 pA at -80mV holding potential measured after 10 mins by whole cell current clamp assay. Type of assay: protein-complex assay.
For assay [9], the species on record is Rattus norvegicus. Put plainly: Anticonvulsant activity against PTZ-induced epileptic seizure Sprague-Dawley rat model assessed as reduction in mortality rate compound infused into hippocampal region and 10 mins later injected with PTZ and measured for 2 hrs post PTZ-stimulation. In kind it is functional, organism-based.
The species entered for assay [10] is Rattus norvegicus. As to the kind of experiment: Anticonvulsant activity against PTZ-induced epileptic seizures Sprague-Dawley rat model assessed as decrease in number of seizures at high stage (stage 4 and 5) compound infused into hippocampal region and 10 mins later injected with PTZ and measured for 2 hrs post-PTZ stimulation. Type of assay: functional, organism-based.

For assay [11], the species on record is Rattus norvegicus. As to the kind of experiment: Effect on neuronal network in PTZ-induced epileptic seizures Sprague-Dawley rat model assessed as lowered PSD at gamma wave band compound infused into hippocampal region and 10 mins later injected with PTZ and measured after 2 hrs by power spectral density analysis. In kind it is functional, organism-based.

The species entered for assay [12] is Rattus norvegicus. As to the kind of experiment: Effect on neuronal network in PTZ-induced epileptic seizures Sprague-Dawley rat model assessed as lowered PSD at theta wave band compound infused into hippocampal region and 10 mins later injected with PTZ and measured after 2 hrs by power spectral density analysis. In kind it is functional, organism-based.
Assay [13] is filed under the species Rattus norvegicus. Put plainly: Effect on neuronal network in PTZ-induced epileptic seizures Sprague-Dawley rat model assessed as lowered PSD at alpha wave band compound infused into hippocampal region and 10 mins later injected with PTZ and measured after 2 hrs by power spectral density analysis. In kind it is functional, organism-based.
The species entered for assay [14] is Rattus norvegicus. As to the kind of experiment: Effect on neuronal network in PTZ-induced epileptic seizures Sprague-Dawley rat model assessed as lowered PSD at delta wave band compound infused into hippocampal region and 10 mins later injected with PTZ and measured after 2 hrs by power spectral density analysis. Type of assay: functional, organism-based.
The species named for assay [15] is Rattus norvegicus. Put plainly: Effect on neuronal network in PTZ-induced epileptic seizures Sprague-Dawley rat model assessed as lowered PSD at beta wave band compound infused into hippocampal region and 10 mins later injected with PTZ and measured after 2 hrs by power spectral density analysis. Type of assay: functional, organism-based.
Assay [16] is filed under the species Rattus norvegicus. As to the kind of experiment: Inhibition of C-Fos expression in PTZ-induced epileptic seizures Sprague-Dawley rat model assessed as inhibition of FLI-positive granular neurons in DG region of contralateral hippocampus at 10 uM compound infused into hippocampal region and 10 mins later injected with PTZ and measured after 2 hrs by immunohistochemistry. In kind it is functional, organism-based.

For assay [17], the species on record is Rattus norvegicus. Put plainly: Inhibition of C-Fos expression in PTZ-induced epileptic seizures Sprague-Dawley rat model assessed as inhibition of FLI-positive pyramidal neurons in CA3 region of ipsilateral hippocampus at 10 uM compound infused into hippocampal region and 10 mins later injected with PTZ and measured after 2 hrs by immunohistochemistry. Type of assay: functional, organism-based.

The species entered for assay [18] is Rattus norvegicus. Put plainly: Inhibition of C-Fos expression in PTZ-induced epileptic seizures Sprague-Dawley rat model assessed as inhibition of FLI-positive pyramidal neurons in CA3 region of contralateral hippocampus at 10 uM compound infused into hippocampal region and 10 mins later injected with PTZ and measured after 2 hrs by immunohistochemistry. Type of assay: functional, organism-based.

For assay [19], the species on record is Rattus norvegicus. As to the kind of experiment: Neuroprotective activity in PTZ-induced epileptic seizure Sprague-Dawley rat model assessed as inhibition of hippocampal destruction by measuring increase in Nissl stained pyramidal neurons in contralateral hippocampus CA1 region compound infused into hippocampal region and 10 mins later injected with PTZ and measured after 3 days by Nissl staining based microscopic analysis. In kind it is functional, organism-based.

The species named for assay [20] is Rattus norvegicus. Put plainly: Neuroprotective activity in PTZ-induced epileptic seizure Sprague-Dawley rat model assessed as inhibition of hippocampal destruction by measuring increase in Nissl stained pyramidal neurons in contralateral hippocampus CA3 region compound infused into hippocampal region and 10 mins later injected with PTZ and measured after 3 days by Nissl staining based microscopic analysis. Type of assay: functional, organism-based.

The species named for assay [21] is Rattus norvegicus. Put plainly: Neuroprotective activity in PTZ-induced epileptic seizure Sprague-Dawley rat model assessed as inhibition of hippocampal destruction by measuring increase in Nissl stained granular neurons in contralateral hippocampus DG region compound infused into hippocampal region and 10 mins later injected with PTZ and measured after 3 days by Nissl staining based microscopic analysis. Type of assay: functional, organism-based.

Assay [22] is filed under the species Rattus norvegicus. As to the kind of experiment: Effect on neuronal network in PTZ-induced epileptic seizures Sprague-Dawley rat model assessed as reduced total PSD frequency waves compound infused into hippocampal region and 10 mins later injected with PTZ and measured after 2 hrs by power spectral density analysis. Type of assay: functional, organism-based.

For assay [23], the species on record is Rattus norvegicus. As to the kind of experiment: Inhibition of C-Fos expression in PTZ-induced epileptic seizures Sprague-Dawley rat model assessed as inhibition of FLI-positive granular neurons in DG region of ipsilateral hippocampus at 10 uM compound infused into hippocampal region and 10 mins later injected with PTZ and measured after 2 hrs by immunohistochemistry. Type of assay: functional, organism-based.

Take `CCCC(CCC)C(=O)O` [VALPROIC ACID]: the mortality in assay [1] came out at 0%. In addition, the Time is recorded as 156.63 s in [2] and 181.25 s in assay [3].
As to `CC[C@H](C)[C@H](NC(=O)[C@H](CC(C)C)NC(=O)CNC(=O)[C@H](Cc1ccccc1)NC(=O)[C@H](CO)NC(=O)CN)C(=O)N[C@@H](CC(=O)O)C(=O)N[C@H](C(=O)N[C@@H](CCCCN)C(=O)N[C@H]1CSSC[C@@H]2NC(=O)[C@H](CCCCN)NC(=O)CNC(=O)[C@H](CCC(N)=O)NC(=O)CNC(=O)[C@H](CO)NC(=O)CNC(=O)[C@H]([C@@H](C)O)NC(=O)[C@H](C(C)C)NC(=O)[C@H](CCC(=O)O)NC(=O)[C@H](CCCCN)NC(=O)[C@@H]3CSSC[C@@H](C(=O)N[C@@H](Cc4ccc(O)cc4)C(=O)O)N[C@@H](CCCNC(=N)N)C(=O)[C@H](CSSC[C@H](NC(=O)[C@H](CCC(=O)O)NC(=O)[C@H](CO)NC(=O)[C@H](CO)NC(=O)[C@H](C)NC(=O)[C@H](Cc4ccccc4)NC1=O)C(=O)N[C@@H](Cc1c[nH]c4ccccc14)C(=O)N[C@@H]([C@@H](C)O)C(=O)N[C@@H](C)C(=O)N3)N[C@@H](CCC(N)=O)C(=O)NC(=O)[C@H](CC(N)=O)NC(=O)[C@H](CC(N)=O)NC(=O)[C@H](CCC(N)=O)NC2=O)C(C)C`, the Ratio in [4] amounted to 0.8. The Kd entry in assay [5] is listed as “Not Active”. In [6], the inhibition result was “Active”. The inhibition entry in [7], in assay [8], in assay [16], in [17], in [18] and in [22] was “inactive” throughout. For the same compound, the inhibition result in assay [23] was “inactive”. Moreover, the outcome in [9], in assay [10], in assay [12], in assay [13], in [14] and in assay [15] was inactive. For the same compound, in assay [19], the outcome was inactive. Besides, the Time in assay [2] fell in the range of 219.5 to 266.5 s; in assay [3] it was 316.66 to 353.33 s. The result in assay [11], in assay [20] and in assay [21] was Active.

Usually mortality stands for the percentage killed.
